Laboratory results taken from patent EP0429372A1, “2-Azolyl nicotinate derivatives as herbicides” (RHONE-POULENC AGROCHIMIE, priority 1989, dated 1991).

Legend:
[1] = system: mauvaises herbes; test: Procedure 2 d): weed control, pre-emergence; type: in vivo; details: 4000 g/ha (procédé 2D), visual rating 20 to 24 days after spraying, vs control pots
Description: (§1) Des quantités appropriées des composés d'essai ont été dissoutes dans de l'acétone pour obtenir des solutions équivalant à des taux d'application de 250, 1000 ou 4000 g de composé d'essai par hectare (g/ha).
Les graines ont été semées dans des pots en matière plastique de 70 mm de côté et 75 mm de profondeur, dans de la terre non stérile provenant de Boarded Barns Farm ou un type de terre similaire provenant d'une source convenable. Les quantités de graines par pot étaient les suivantes :
Les composés de la présente invention ont été appliqués à la surface du sol, contenant les semences, de la manière décrite dans le paragraphe (a). Un seul pot de chaque plante cultivée et de chaque mauvaise herbe a été attribué à chaque traitement, en association avec des témoins n'ayant pas subi de pulvérisation et des témoins ayant subi une pulvérisation avec de l'acétone seule. Après traitement, les pots ont été maintenus dans une serre et ont été arrosés par aspersion pendant 3 jours, puis par une sous- irrigation controlée. L'évaluation visuelle des dégats infligés aux plantes cultivées a été effectuée 20 à 24 jours après pulvérisation. Les résultats ont été exprimés en pourcentage de réduction de croissance ou d'endommagement des plantes cultivées ou des mauvaises herbes, comparativement aux plantes présentes dans les pots témoins.

[2] = system: mauvaises herbes; type: in vivo; details: post-emergence, 4000 g/ha
Description: as §1
Les mauvaises herbes et les plantes cultivées ont été semées directement dans du compost de mise en pot John Innes dans des pots de 75 mm de profondeur et 70 mm de côté, sauf en ce qui concerne l'espèce du genre Amaranthus qui a été repiquée au stade de jeunes plants de semis et transférée dans les pots une semaine avant plulvérisation. Puis les plantes ont été cultivées dans la serre jusqu'à ce qu'elles soient prêtres à subir une pulvérisation avec les composés d'essai. Le nombre de plantes par pot étaient les suivants :
Les composés d'essai ont été appliqués aux plantes de la manière décrite dans le paragraphe (a). Un seul pot de chaque espèce de plante cultivée et de chaque espèce de mauvaise herbe a été attribué à chaque traitement, en association avec des témoins n'ayant pas subi de pulvérisation et des témoins ayant subi une pulvérisation avec de l'acétone seule.
Après traitement, les pots ont été maintenus dans une serre et ont été arrosés une fois par aspersion au bout de 24 heures, puis par sous - irrigation contrôlée. L'évaluation visuelle des dégâts infligés aux plantes cultivées et de la destruction des mauvaises herbes a été effectué 20 à 24 jours après pulvérisation. Les résultats ont été exprimés en pourcentage de réduction de croissance ou d'endommagement des plantes cultivées ou des mauvaises herbes, comparativement aux plantes présentes dans les pots témoins.

SMILES | réduction de la croissance d'une ou plusieurs des espèces de mauvaises herbes [1] | destruction d'une ou plusieurs des espèces de mauvaises herbes [2]
COc1cccc2c1nc(-c1ncccc1C(=O)O)n2S(=O)(=O)N(C)C [compound 90] | ≥ 90% | ≥ 90%
Cc1ccc2c(nc(-c3ncccc3C(=O)O)n2S(=O)(=O)N(C)C)c1C [compound 91] | ≥ 90% | ≥ 90%
Cc1ccc(C(=O)O)c(-c2nc3ccccc3n2S(=O)(=O)N(C)C)n1 [compound 93] | ≥ 90% | ≥ 90%
C#CCOC(=O)c1cccnc1-c1nc2ccccc2n1S(=O)(=O)N(C)C [compound 99] | ≥ 90% | ≥ 90%
CCCCCCOC(=O)c1cccnc1-c1nc2ccccc2n1S(=O)(=O)N(C)C [compound 103] | ≥ 90% | ≥ 90%
